Measured values from publication PMC10433847, “The Plasmodium Lactate/H^+ Transporter PfFNT Is Essential and Druggable In Vivo” (Antimicrobial Agents and Chemotherapy, 2023).

Biological target: T1, PfFNT V196L (Plasmodium falciparum, UniProt O77389, V196L)
T1 sequence (O77389 1-309 V196L): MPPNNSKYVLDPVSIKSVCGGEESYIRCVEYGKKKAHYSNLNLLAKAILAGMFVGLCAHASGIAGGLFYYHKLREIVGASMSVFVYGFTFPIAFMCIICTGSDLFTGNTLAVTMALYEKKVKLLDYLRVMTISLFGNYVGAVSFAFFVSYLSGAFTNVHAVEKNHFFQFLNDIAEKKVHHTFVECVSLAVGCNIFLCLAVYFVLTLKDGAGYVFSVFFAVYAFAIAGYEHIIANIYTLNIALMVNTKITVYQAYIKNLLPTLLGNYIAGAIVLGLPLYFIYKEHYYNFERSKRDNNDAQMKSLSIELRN
Assay type: cell-based
Details: pH 6.8; read-out: IC50, inhibition of 14C-lactate transport

Structure (SMILES)	IC50 [nM]
O=C(/C=C(\O)C(F)(F)C(F)(F)F)c1cccnc1 [BH267.meta]	850 ± 50
COc1ccc2c(c1)OC(O)(C(F)(F)C(F)(F)F)CC2=O (centres unmarked) [MMV007839]	730 ± 70
